According to ChEMBL document CHEMBL3881525, “Analogs of dehydrophenylahistins and their therapeutic use” (2007):
Converted amounts (≈) assume the structure as drawn. Each block holds one compound with its values, some of them ahead of it. The source made the active and inactive calls. No cut-off for these calls is given here.

What was measured:
[1] = Antitumor activity against human HT-29 cells xenografted in nude mouse assessed as tumor growth inhibition at 100 mg/kg, ip administered thrice weekly relative to control; format: functional; details: HT-29, ip, read-out: TGI
[2] = Cytotoxicity against human HT-29 cells assessed as reduction in cell viability measured after 48 hrs by resazurin dye-based fluorometric analysis; format: functional; details: Homo sapiens, HT-29, 48 h
[3] = Cytotoxicity against human PC3 cells assessed as reduction in cell viability measured after 48 hrs by resazurin dye-based fluorometric analysis; format: functional; details: PC-3, 48 h
[4] = Cytotoxicity against human MDA-MB-231 cells assessed as reduction in cell viability measured after 48 hrs by resazurin dye-based fluorometric analysis; format: functional; details: MDA-MB-231, 48 h
[5] = Cytotoxicity against human NCI-H292 cells assessed as reduction in cell viability measured after 48 hrs by resazurin dye-based fluorometric analysis; format: functional; details: NCI-H292, 48 h
[6] = Cytotoxicity against mouse B16F10 cells assessed as reduction in cell viability measured after 48 hrs by resazurin dye-based fluorometric analysis; format: functional; details: B16-F10, 48 h
[7] = Antiproliferative activity against taxol-resistant human MES-SA/Dx5 cells expressing MDR1 mRNA and P-gp; format: functional, cell-based
MES-SA = test: Ratio of EC50 for taxol-resistant human MES-SA/DX5 cells expressing MDR1 mRNA and P-gp to EC50 for taxol-sensitive human MES-SA cells; format: functional
HL-60 = test: Ratio of EC50 for human mitoxantrone-sensitive HL60 cells to EC50 for human mitoxantrone-resistant HL60/MX2 cells; format: functional
Tubulin (Homo sapiens) [8] = molecular target: T1, Tubulin (Homo sapiens) (UniProt P68371+Q9H4B7+P0DPH7+P68366+Q13509+Q71U36+P04350+Q3ZCM7+P07437+P68363+Q9BQE3+Q6PEY2+Q13885+Q9BVA1+Q9BUF5); test: Induction of microtubule depolymerization in HUVEC at 1.5 to 5 uM by turbidity spectroscopic analysis; format: cell-based
Tubulin (Homo sapiens) [9] = molecular target: T1, Tubulin (Homo sapiens); test: Induction of microtubule depolymerization in HUVEC at 20 nM measured after 30 mins by DAPI-staining based immunofluorescence analysis; format: cell-based
[10] = Cytotoxicity against human PC3 cells assessed as reduction in cell viability measured after 48 hrs by resazurin dye-based fluorometric analysis relative to control; format: functional, PC-3; design: concentration or dose not given beside the values
[11] = Cytotoxicity against human HT-29 cells assessed as reduction in cell viability measured after 48 hrs by resazurin dye-based fluorometric analysis relative to control; format: functional
Aspergillus fumigatus [12] = test: Fungicidal activity against Aspergillus fumigatus isolate 2 measured after 48 hrs by broth dilution method; format: functional; details: isolate 2, 48 h
Candida albicans [13] = test: Antifungal activity against Candida albicans 90028 measured after 48 hrs by broth dilution method; format: functional; details: Candida albicans, 90028, 48 h
Candida albicans [14] = test: Antifungal activity against Candida albicans ATCC 10231 measured after 48 hrs by broth dilution method; format: functional; details: ATCC 10231, 48 h
[15] = Antifungal activity against Candida glabrata measured after 48 hrs by broth dilution method; format: functional; details: Nakaseomyces glabratus
Aspergillus fumigatus [16] = test: Antifungal activity against Aspergillus fumigatus isolate 1 measured after 48 hrs by broth dilution method; format: functional; details: isolate 1, 48 h
Aspergillus fumigatus [17] = test: Antifungal activity against Aspergillus fumigatus isolate 2 measured after 48 hrs by broth dilution method; format: functional; details: isolate 2, 48 h
[18] = molecular target: Tubulin alpha (Homo sapiens) (UniProt P0DPH7+P68366+Q71U36+P68363+Q9BQE3+Q6PEY2+A6NHL2+Q9NY65); test: Induction of alpha-tubulin depolymerization in HUVEC at 200 nM measured after 30 mins by DAPI staining based indirect immunofluorescence analysis; format: cell-based
[19] = Antiproliferative activity against human mitoxantrone-sensitive HL60 cells; format: functional, cell-based; details: HL-60
[20] = Antiproliferative activity against human mitoxantrone-resistant HL60/MX2 cells; format: functional, cell-based; details: HL-60
Jurkat [21] = test: Induction of apoptosis in human Jurkat cells assessed as caspase3 activation; format: functional, cell-based
[22] = Antiproliferative activity against taxol-sensitive human MES-SA cells […]; format: functional, cell-based
[23] = Antiproliferative activity against taxol-sensitive human MES-SA cells pretreated with p-gp inhibitor cyclosporinA followed by compound addition; format: functional, cell-based
[24] = Antiproliferative activity against taxol-resistant human MES-SA/Dx5 cells expressing MDR1 mRNA and P-gp pretreated with p-gp inhibitor cyclosporinA followed by compound addition; format: functional, cell-based
Jurkat [25] = test: Induction of apoptosis in human Jurkat cells assessed as DNA laddering at 1 nM by gel electrophoresis; format: functional, cell-based
Jurkat [26] = test: Induction of apoptosis in human Jurkat cells assessed as PARP cleavage at 100 nM measured after 10 hrs by Western blotting; format: functional, cell-based
[27] = Antifungal activity against Trichophyton rubrum isolate 1 measured after 48 hrs by broth dilution method; format: functional
[28] = Antifungal activity against Trichophyton rubrum isolate 2 measured after 48 hrs by broth dilution method; format: functional
Trichophyton rubrum = test: Fungicidal activity against Trichophyton rubrum isolate 2 measured after 48 hrs by broth dilution method; format: functional; details: isolate 2, 48 h
[29] = Antifungal activity against Trichophyton mentagrophytes isolate 1 measured after 48 hrs by broth dilution method; format: functional
[30] = system: Trichophyton mentagrophytes; test: Fungicidal activity against Trichophyton mentagrophytes isolate 1 measured after 48 hrs by broth dilution method; format: functional; details: isolate 1, 48 h
[31] = Antifungal activity against Trichophyton mentagrophytes isolate 2 measured after 48 hrs by broth dilution method; format: functional
[32] = Antifungal activity against Epidermophyton floccosum isolate 1 measured after 48 hrs by broth dilution method; format: functional
[33] = Antifungal activity against Epidermophyton floccosum isolate 2 measured after 48 hrs by broth dilution method; format: functional
Nakaseomyces glabratus = test: Fungicidal activity against Candida glabrata measured after 48 hrs by broth dilution method; format: functional

SMILES: CCc1c2c(nc3ccc(OC(=O)N4CCC(N5CCCCC5)CC4)cc13)-c1cc3c(c(=O)n1C2)COC(=O)[C@]3(O)CC [IRINOTECAN]
inhibition in vivo at 100 mg/kg [1]: 32.7 to 39%

Activity (Tubulin (Homo sapiens) [8]): Active | Activity (Tubulin (Homo sapiens) [9]): Active
SMILES: CC(C)(C)c1ocnc1/C=c1\[nH]c(=O)/c(=C/c2c(F)c(F)cc(F)c2F)[nH]c1=O
EC50 [2]: 11 to 14.8 nM | EC50 [3]: 17 nM | EC50 [4]: 42 nM | EC50 [5]: 14 nM | EC50 [6]: > 2000 nM | IC50 [7]: 14 nM | Ratio EC50 (MES-SA): 1.1 | Ratio EC50 (HL-60): 0.4

MIC (Candida albicans [13]): > 32 µg/mL | MIC (Candida albicans [14]): > 32 µg/mL | MIC [15]: > 32 µg/mL | MIC (Aspergillus fumigatus [16]): > 16 µg/mL | MIC (Aspergillus fumigatus [17]): 0.06 µg/mL (≈ 0.141 µM)
SMILES: COc1ccc(/C=c2\[nH]c(=O)/c(=C/c3nc[nH]c3C(C)(C)C)[nH]c2=O)c(OC)c1OC
EC50 [2]: 4060 to 4800 nM | Activity [10]: 94% | inhibition (INH) [11]: 78% | MFC (Aspergillus fumigatus [12]): > 16 µg/mL

SMILES: CC(C)(C)c1[nH]cnc1/C=c1\[nH]c(=O)/c(=C/c2cccc(F)c2)[nH]c1=O
Activity [18]: Active

SMILES: O=C1c2c(O)ccc(O)c2C(=O)c2c(NCCNCCO)ccc(NCCNCCO)c21 [MITOXANTRONE]
EC50 [19]: 42 to 202 nM | EC50 [20]: 1100 to 4870 nM | Activity (Jurkat [21]): Dose-dependent effect

SMILES: C=CC(C)(C)c1[nH]cnc1/C=c1\[nH]c(=O)/c(=C/c2ccccc2)[nH]c1=O
EC50 [2]: 42.6 to 48 nM | EC50 [3]: 4.7 to 5.4 nM | inhibition (INH) [11]: 86% | EC50 [22]: 116 nM | EC50 [23]: 114 nM | EC50 [7]: 98 nM | EC50 [24]: 88 nM | Activity (Jurkat [25]): Active | Activity (Jurkat [26]): Active | MIC [15]: > 68 µg/mL | MIC (Aspergillus fumigatus [16]): > 16 µg/mL | MIC (Aspergillus fumigatus [17]): > 16 µg/mL | MIC [27]: > 16 µg/mL | MIC [28]: 0.25 µg/mL (≈ 0.718 µM) | MFC (Trichophyton rubrum): > 16 µg/mL | MIC [29]: 4 µg/mL (≈ 11.5 µM) | MFC [30]: > 16 µg/mL | MIC [31]: > 16 µg/mL | MIC [32]: > 16 µg/mL | MIC [33]: > 16 µg/mL

SMILES: CC(C)(C)c1ocnc1/C=c1\[nH]c(=O)/c(=C/c2ccccc2)[nH]c1=O.O=C(O)C(F)(F)F
EC50 [2]: 21 to 22.2 nM | EC50 [3]: 20 nM | inhibition (INH) [11]: 88% | EC50 [4]: 41 nM | EC50 [5]: 19 nM | EC50 [6]: > 2000 nM | IC50 [7]: 17 nM | EC50 [20]: 14 nM | Ratio EC50 (MES-SA): 1.4 | Ratio EC50 (HL-60): 0.6 | Activity (Tubulin (Homo sapiens) [8]): Active | Activity (Tubulin (Homo sapiens) [9]): Active

SMILES: CCCCNC(=O)n1c(NC(=O)OC)nc2ccccc21 [BENOMYL]
MFC (Nakaseomyces glabratus): > 512 µg/mL
